We go through 4 molecules from publication PMC4073285, “Exploring the molecular mechanisms of electron shuttling across the microbe/metal space” (Frontiers in Microbiology, 2014).

One test concerns the target T1, UndA (Shewanella sp. HRCR_06, UniProt F8UWD6).
T1 construct: recombinant soluble undecaheme cytochrome from E. coli JM109(DE3) periplasm with pEC86; stop codon after the gene removes V5 and His6 tags; C-terminus encoded by primer GVDKVHPVKY
Nature of the test: 1H NMR titration (heme methyl shifts). It is filed as binding. Conditions: oxidized protein; 20 mM potassium phosphate pH 7.6, 100 mM KCl, 2H2O, 25 °C.

Test [1] concerns the target T2, MtrC (Shewanella oneidensis, UniProt Q8EG34).
T2 construct: recombinant soluble decaheme cytochrome from E. coli JM109(DE3) periplasm with pEC86; stop codon after the gene removes V5 and His6 tags; C-terminus encoded by primer HTKVKM
Nature of the test: 1H NMR titration (heme methyl shifts). It is filed as binding. Conditions: oxidized protein; 20 mM potassium phosphate pH 7.6, 100 mM KCl, 2H2O, 25 °C.

Test [2] has as its target T3, OmcA (Shewanella oneidensis, UniProt Q8EG33).
T3 construct: recombinant soluble decaheme cytochrome expressed in S. oneidensis MR-1 from pBAD202/D-TOPO; stop codon after the gene removes V5 and His6 tags; C-terminus encoded by primer ...AIDGSTR N not altered (ends MEAHGN)
Nature of the test: 1H NMR titration (heme methyl shifts). The test is classed as binding. Conditions: oxidized protein; 20 mM potassium phosphate pH 7.6, 100 mM KCl, 2H2O, 25 °C.

Another test deals with T4, MtrF (Shewanella oneidensis, UniProt Q8EG32).
T4 construct: recombinant soluble decaheme cytochrome expressed in S. oneidensis MR-1; stop codon after the gene removes V5 and His6 tags
T4 sequence (Q8EG32 24-639): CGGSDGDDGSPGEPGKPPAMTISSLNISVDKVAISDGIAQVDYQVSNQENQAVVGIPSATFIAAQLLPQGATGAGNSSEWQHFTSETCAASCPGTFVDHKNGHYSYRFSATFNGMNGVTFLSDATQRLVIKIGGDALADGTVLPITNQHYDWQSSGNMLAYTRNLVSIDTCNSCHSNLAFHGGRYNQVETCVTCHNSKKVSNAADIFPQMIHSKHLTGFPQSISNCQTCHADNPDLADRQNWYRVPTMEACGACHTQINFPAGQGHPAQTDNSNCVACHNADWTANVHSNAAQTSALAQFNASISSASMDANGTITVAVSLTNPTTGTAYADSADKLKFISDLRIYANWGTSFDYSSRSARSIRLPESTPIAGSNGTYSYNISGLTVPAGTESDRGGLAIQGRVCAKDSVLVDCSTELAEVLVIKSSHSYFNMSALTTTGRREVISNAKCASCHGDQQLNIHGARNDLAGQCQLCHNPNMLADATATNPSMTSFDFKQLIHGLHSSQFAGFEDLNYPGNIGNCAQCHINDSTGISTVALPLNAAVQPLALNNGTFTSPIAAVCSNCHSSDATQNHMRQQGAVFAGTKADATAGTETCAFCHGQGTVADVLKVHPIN
Nature of the test: stopped-flow oxidation of reduced cytochrome at […] nm. It is filed as biochemical. Conditions: electron acceptor; 11 μM PMS, 0.31 μM protein, pH 7.6, 25 °C, anaerobic.

Test [3] deals with T3, OmcA. Nature of the test: […] NMR titration. It is filed as binding. Conditions: read-out: βd.
The target in test [4] is T2, MtrC. Nature of the test: […] NMR titration. It is filed as binding. Conditions: read-out: βd.

T2 sequence (Q8EG34 entry or part of it): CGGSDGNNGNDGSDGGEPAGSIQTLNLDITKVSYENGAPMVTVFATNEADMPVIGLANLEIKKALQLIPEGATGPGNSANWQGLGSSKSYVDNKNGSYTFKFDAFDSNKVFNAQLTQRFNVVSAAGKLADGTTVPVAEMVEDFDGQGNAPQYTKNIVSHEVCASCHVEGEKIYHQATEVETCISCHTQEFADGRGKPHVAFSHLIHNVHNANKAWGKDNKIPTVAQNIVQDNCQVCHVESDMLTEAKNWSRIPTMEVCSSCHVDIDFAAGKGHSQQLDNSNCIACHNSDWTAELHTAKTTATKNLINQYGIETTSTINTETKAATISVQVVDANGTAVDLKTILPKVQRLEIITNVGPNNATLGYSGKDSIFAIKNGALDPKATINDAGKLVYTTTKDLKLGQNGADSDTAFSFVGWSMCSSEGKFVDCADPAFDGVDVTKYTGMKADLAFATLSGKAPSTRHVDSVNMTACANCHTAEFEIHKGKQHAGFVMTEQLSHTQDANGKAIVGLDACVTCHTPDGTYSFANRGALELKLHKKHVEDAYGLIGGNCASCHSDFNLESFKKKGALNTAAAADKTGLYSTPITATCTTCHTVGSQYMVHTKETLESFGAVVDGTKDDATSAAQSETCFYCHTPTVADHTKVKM
T3 sequence (Q8EG33 entry or part of it): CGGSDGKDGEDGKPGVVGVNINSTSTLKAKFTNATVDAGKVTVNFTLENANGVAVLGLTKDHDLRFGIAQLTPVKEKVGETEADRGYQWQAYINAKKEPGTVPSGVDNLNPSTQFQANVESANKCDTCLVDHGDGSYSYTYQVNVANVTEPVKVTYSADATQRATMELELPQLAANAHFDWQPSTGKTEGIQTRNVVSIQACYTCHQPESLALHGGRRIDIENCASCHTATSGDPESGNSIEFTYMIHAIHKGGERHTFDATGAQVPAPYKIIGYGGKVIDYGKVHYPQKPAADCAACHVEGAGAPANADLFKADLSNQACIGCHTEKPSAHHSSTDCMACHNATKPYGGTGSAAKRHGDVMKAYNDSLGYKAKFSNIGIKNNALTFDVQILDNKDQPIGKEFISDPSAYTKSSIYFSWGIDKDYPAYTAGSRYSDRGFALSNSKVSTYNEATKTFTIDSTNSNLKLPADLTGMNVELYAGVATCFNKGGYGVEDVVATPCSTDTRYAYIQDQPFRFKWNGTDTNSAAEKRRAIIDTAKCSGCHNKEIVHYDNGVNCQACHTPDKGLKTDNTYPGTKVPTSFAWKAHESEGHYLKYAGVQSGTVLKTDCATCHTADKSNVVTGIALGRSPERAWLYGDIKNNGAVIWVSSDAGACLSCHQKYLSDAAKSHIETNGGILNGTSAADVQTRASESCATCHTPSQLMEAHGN
T1 sequence (F8UWD6 entry or part of it): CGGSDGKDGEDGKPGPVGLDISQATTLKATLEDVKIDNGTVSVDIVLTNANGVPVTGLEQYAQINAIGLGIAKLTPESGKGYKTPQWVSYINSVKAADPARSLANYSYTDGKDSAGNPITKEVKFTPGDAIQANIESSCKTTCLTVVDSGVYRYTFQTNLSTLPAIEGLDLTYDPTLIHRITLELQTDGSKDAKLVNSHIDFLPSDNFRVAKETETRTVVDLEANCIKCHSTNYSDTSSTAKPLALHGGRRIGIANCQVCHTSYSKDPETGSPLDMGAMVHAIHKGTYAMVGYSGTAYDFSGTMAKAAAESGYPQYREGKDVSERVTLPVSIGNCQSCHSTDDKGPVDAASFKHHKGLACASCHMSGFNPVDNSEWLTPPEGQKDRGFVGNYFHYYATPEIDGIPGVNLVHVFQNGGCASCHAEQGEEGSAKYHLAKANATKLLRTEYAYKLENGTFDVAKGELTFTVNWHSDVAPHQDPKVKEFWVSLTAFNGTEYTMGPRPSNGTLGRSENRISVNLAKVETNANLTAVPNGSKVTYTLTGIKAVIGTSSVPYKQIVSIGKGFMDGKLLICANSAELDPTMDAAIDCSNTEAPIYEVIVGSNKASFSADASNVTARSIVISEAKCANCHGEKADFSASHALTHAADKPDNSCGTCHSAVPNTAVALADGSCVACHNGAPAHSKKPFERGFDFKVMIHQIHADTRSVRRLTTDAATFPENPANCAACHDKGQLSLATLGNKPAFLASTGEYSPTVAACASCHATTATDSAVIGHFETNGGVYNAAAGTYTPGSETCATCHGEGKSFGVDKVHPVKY

`O=C1c2ccc(S(=O)(=O)O)cc2C(=O)c2ccc(S(=O)(=O)O)cc21` [AQDS, Anthraquinone 2,6-disulfonate]: the “1H NMR titration (heme methyl shifts)” value was “the addition of AQDS promoted noticeable spectral changes in OmcA, MtrC, and UndA” at UndA; “the addition of AQDS promoted noticeable spectral changes in OmcA, MtrC, and UndA” on MtrC [1]; “the addition of AQDS promoted noticeable spectral changes in OmcA, MtrC, and UndA” at OmcA [2].

Take `C[n+]1c2ccccc2nc2ccccc21` [PMS, Phenazine methosulfate]: the “stopped-flow oxidation of reduced cytochrome at 552 nm” value at MtrF is recorded as “PMS oxidized all the cytochromes at a rate too fast to be measured”. Also, the “1H NMR titration (heme methyl shifts)” value was “only promoted significant changes in the heme signals of OmcA and MtrC” on MtrC [1]; “RF, FMN, and PMS, only promoted significant changes in the heme signals of OmcA” at OmcA [2].

As to `Cc1cc2nc3c(=O)[nH]c(=O)nc-3n(C[C@H](O)[C@H](O)[C@H](O)CO)c2cc1C` [RF, Riboflavin], the “1H NMR titration (heme methyl shifts)” value on MtrC [1] was “only promoted significant changes in the heme signals of OmcA and MtrC”; at OmcA [2] it was “RF, FMN, and PMS, only promoted significant changes in the heme signals of OmcA”.

As for `Cc1cc2nc3c(=O)[nH]c(=O)nc-3n(C[C@H](O)[C@H](O)[C@H](O)COP(=O)(O)O)c2cc1C` [FMN, Flavin mononucleotide], the Kd at OmcA [3] was 29 µM; at MtrC [4] it was 255 µM.
